Results taken from patent US20250230159A1, “FUSED HETEROCYCLIC COMPOUNDS AS MODULATORS OF RAS SIGNALLING” (Shenzhen Ionova Life Science Co., Ltd., priority 2022, published 2025).

Columns and labels:
[1] = target: KRAS-G12C/SOS1 interaction (Homo sapiens (Human), UniProt Q07889); assay: Protein-Protein Interaction (PPI) assay, SOS1-KRAS binding assay kit (HTRF); conditions: read-out: PPI Assay IC50
pERK in Hela cells = assay: Phospho-ERK (p-ERK) assay in Hela cells; assay type: cell-based; conditions: Homo sapiens, Table 1, 1 hour with compound, β-actin normalized
Outline: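 Cells were treated for 1 h at 37 °C with compound in a 9-point, 3-fold series from 10 μM, then fixed and stained for pERK and β-actin. An In-Cell Western read-out normalized pERK to β-actin and to vehicle wells to give % inhibition and IC50.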

Sequence of KRAS-G12C/SOS1 interaction (Q07889 whole entry, stated change not applied): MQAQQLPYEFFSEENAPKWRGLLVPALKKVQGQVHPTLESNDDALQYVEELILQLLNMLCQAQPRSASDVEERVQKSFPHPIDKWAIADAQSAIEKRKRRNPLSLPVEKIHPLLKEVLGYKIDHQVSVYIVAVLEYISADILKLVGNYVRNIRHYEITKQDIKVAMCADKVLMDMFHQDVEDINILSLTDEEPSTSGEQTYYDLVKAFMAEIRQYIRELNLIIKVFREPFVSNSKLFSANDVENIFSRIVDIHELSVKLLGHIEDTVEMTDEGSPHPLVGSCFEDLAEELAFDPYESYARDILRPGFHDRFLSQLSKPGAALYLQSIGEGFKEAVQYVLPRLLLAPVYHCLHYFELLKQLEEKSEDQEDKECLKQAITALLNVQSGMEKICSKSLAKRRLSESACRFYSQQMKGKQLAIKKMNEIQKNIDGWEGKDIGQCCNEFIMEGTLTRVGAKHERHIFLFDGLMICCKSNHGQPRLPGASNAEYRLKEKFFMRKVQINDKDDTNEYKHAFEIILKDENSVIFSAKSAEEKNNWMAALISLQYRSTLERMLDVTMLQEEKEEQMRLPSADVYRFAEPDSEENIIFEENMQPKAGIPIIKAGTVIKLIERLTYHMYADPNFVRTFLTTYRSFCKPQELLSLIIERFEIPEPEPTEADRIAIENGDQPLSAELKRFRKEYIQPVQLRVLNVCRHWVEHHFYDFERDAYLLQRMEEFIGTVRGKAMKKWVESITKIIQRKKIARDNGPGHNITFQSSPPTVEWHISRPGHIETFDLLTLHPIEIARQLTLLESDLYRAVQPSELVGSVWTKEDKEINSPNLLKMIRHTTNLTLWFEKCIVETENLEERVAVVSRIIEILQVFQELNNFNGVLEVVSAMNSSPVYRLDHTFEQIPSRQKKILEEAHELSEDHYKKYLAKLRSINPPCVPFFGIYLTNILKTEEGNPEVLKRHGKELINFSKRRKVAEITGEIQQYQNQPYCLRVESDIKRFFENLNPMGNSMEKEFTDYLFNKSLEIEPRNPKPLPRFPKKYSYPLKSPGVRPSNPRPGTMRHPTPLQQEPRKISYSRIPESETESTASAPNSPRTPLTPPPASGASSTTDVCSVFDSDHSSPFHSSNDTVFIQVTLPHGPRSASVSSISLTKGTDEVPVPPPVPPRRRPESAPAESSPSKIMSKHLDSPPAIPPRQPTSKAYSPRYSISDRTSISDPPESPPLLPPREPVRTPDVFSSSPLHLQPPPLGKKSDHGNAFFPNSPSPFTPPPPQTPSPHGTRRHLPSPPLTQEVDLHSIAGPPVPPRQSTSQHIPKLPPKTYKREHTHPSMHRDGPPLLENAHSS

| SMILES | IC50 [1] [nM] | IC50 (pERK in Hela cells) [nM] |
| --- | --- | --- |
| COC1(c2cc3c(N[C@H](C)c4cc(N)cc(C(F)(F)F)c4)ncnc3n3cnnc23)CCOCC1 [Example 123] | < 100 | < 100 |
| C[C@@H](Nc1ncnc2c1cc(N1CCOCC1)c1ncnn12)c1cc(N)cc(C(F)(F)F)c1 [Example 153, (R)—N-(1-(3-amino-5-(trifluoromethyl)phenyl)ethyl)-4-morpholino-[1,2,4]triazolo[1′,5′:1,6]pyrido[2,3-d]pyrimidin-6-amine] | < 100 | > 100 |
| C[C@@H](Nc1ncnc2c1cc(C1(C)CCS(=O)(=O)CC1)c1nncn12)c1cccc(C(F)F)c1F [Example 129] | < 100 | < 100 |
| Cc1nc(N[C@H](C)c2cccc(C(F)F)c2F)c2cc(C3CCN(CCS(C)(=O)=O)CC3)c3nncn3c2n1 [Example 71] | < 100 | > 100 |
| C[C@@H](Nc1ncnc2c1cc(N1CCN(C)C(=O)C1)c1nncn12)c1cccc(C(F)F)c1F [Example 164] | < 100 | < 100 |
| Cc1nc(N[C@H](C)c2cc(N)cc(C(F)(F)F)c2)c2cc(C(=O)N3CC4(COC4)C3)c3ncnn3c2n1 [Example 6] | < 100 | < 100 |
| Cc1nc(N[C@H](C)c2cccc(C(F)F)c2F)c2cc(C3CCS(=O)(=O)CC3)c3nncn3c2n1 [Example 152] | < 100 | > 100 |
| C[C@@H](Nc1ncnc2c1cc(N1CCOCC1=O)c1nncn12)c1cccc(C(F)F)c1F [Example 162] | < 100 | < 100 |
| Cc1nc2c(C3(C#N)CC3)cc3c(N[C@H](C)c4cccc(C(F)F)c4F)ncnc3n2n1 [Example 170, (R)-1-(6-((1-(3-(difluoromethyl)-2-fluorophenyl)ethyl)amino)-2-methyl-[1,2,4]triazolo[1′,5′:1,6]pyrido[2,3-d]pyrimidin-4-yl)cyclopropane-1-carbonitrile] | < 100 | < 100 |
| Cc1nc2c(N3CCOCC3=O)cc3c(N[C@H](C)c4cccc(C(F)F)c4F)ncnc3n2n1 [Example 155] | < 100 | < 100 |
| Cc1nc(N[C@H](C)c2cccc(C(F)F)c2F)c2cc(C(=O)N3CCCC34CCOC4)c3nnnn3c2n1 (stereo partly drawn) [Example 60] | < 100 | > 100 |
| COC1(c2cc3c(N[C@H](C)c4cccc(C(F)F)c4F)ncnc3n3cnnc23)CCN(C(C)=O)CC1 [Example 119] | < 100 | < 100 |
